# From patent publication US6852499B2, “Luciferase detection reagent kits and luciferase detection method using the kit” (Toyo Ink Mfg. Co., Ltd., priority 2002, dated 2005)
# Target: T1, Coleoptera luciferase (Photinus pyralis, UniProt P08659)
# T1 construct: purchased Toyo Ink Manufacturing Co., Ltd. PGL100
# Assay: luciferin/luciferase luminescent reaction with an added sulfur reagent, measured on a luminometer
# Assay type: biochemical
# Conditions: for RLU/200 (integrated quantity of light emitted for 200 seconds) / max RLU (maximum quantity of light emitted): 100 ng/mL luciferase; for max RLU (maximum quantity of light emitted): initial 200 seconds; for emission pattern (glow vs flash luminescence): reagent without thiol reagent, 200 seconds
# Method: The luciferase used was one included in a commercially available kit (Toyo Ink Manufacturing Co., Ltd.; product No. PGL100).
# A “luciferase luminescent reagent” containing 20 mM tricine, 1.07 mM (MgCO3)4Mg(OH)2·5H2O, 2.67 mM magnesium sulfate, 0.1 mM EDTA, 270 μM CoA, 470 μM luciferin and 530 μM adenosine triphosphate (ATP), pH 7.8 was prepared in accordance with the formulation described in the instructions included in “PicaGene Luminescent Kit” (Toyo Ink Manufacturing Co., Ltd.; product No. PGL100), except that 33.3 mM dithiothreitol (DTT) mentioned in the instructions was not added. To the “luciferase luminescent reagent” was added sodium diethyldithiocarbamate at final concentrations of 0 mM, 0.33 mM, 3.3 mM and 33.3 mM.
# An enzyme solution containing 100 ng/mL of luciferase was collected in 10 μL in a measurement cuvette of a luminometer (Berthold, LB9506). To the enzyme solution was added 100 μL of each of the “luciferase luminescent reagents” prepared above. Immediately after the addition, the resulting mixed solution was loaded on the luminometer, and the quantity of light emitted was measured for the initial 200 seconds of the reagent addition to determine the maximum quantity of light emitted (RLU/sec) during the period of measurement and the integrated quantity of light emitted for 200 seconds (RLU/200 sec) (Table 2).
# (§1) A “luciferase luminescent reagent” containing 20 mM tricine, 1.07 mM (MgCO3)4Mg(OH)2·5H2O, 2.67 mM magnesium sulfate, 0.1 mM EDTA, 270 μM CoA, 470 μM luciferin and 530 μM adenosine triphosphate (ATP), pH 7.8 was prepared in accordance with the formulation described in the instructions included in “PicaGene Luminescent Kit” (Toyo Ink Manufacturing Co., Ltd.; product No. PGL100), except that 33.3 mM dithiothreitol (DTT) mentioned in the instructions was not added.
# A “luciferase luminescent reagent” containing 20 mM tricine, 1.07 mM (MgCO3)4Mg(OH)2·5H2O, 2.67 mM magnesium sulfate, 0.1 mM EDTA, 270 μM CoA, 470 μM luciferin and 530 μM adenosine triphosphate (ATP), pH 7.8 was prepared in accordance with the formulation described in the instructions included in “PicaGene Luminescent Kit” (Toyo Ink Manufacturing Co., Ltd.; product No. PGL100), except that 33.3 mM dithiothreitol (DTT) mentioned in the instructions was not added. To the “luciferase luminescent reagent” was added potassium xanthogenate at final concentrations of 0 mM, 0.33 mM 3.3 mM and 33.3 mM.
# To the enzyme solution was added 100 μL of each of the “luciferase luminescent reagents” prepared above. Immediately after the addition, the resulting mixed solution was loaded on the luminometer, and the quantity of light emitted was measured for the initial 200 seconds of the reagent addition to determine the maximum quantity of light emitted (RLU/sec) during the period of measurement and the integrated quantity of light emitted for 200 seconds (RLU/200 sec) (Table 2).
# A “luciferase luminescent reagent” containing 20 mM tricine, 1.07 mM (MgCO3)4Mg(OH)2·5H2O, 2.67 mM magnesium sulfate, 0.1 mM EDTA, 270 μM CoA, 470 μM luciferin and 530 μM adenosine triphosphate (ATP), pH 7.8 was prepared in accordance with the formulation described in the instructions included in “PicaGene Luminescent Kit” (Toyo Ink Manufacturing Co., Ltd.; product No. PGL100), except that 33.3 mM dithiothreitol (DTT) mentioned in the instructions was not added. To the “luciferase luminescent reagent” was added 2-mercaptobenzothiazole at final concentrations of 0 mM, 0.33 mM 3.3 mM and 33.3 mM.
# as §1
# T1 sequence (P08659 whole entry): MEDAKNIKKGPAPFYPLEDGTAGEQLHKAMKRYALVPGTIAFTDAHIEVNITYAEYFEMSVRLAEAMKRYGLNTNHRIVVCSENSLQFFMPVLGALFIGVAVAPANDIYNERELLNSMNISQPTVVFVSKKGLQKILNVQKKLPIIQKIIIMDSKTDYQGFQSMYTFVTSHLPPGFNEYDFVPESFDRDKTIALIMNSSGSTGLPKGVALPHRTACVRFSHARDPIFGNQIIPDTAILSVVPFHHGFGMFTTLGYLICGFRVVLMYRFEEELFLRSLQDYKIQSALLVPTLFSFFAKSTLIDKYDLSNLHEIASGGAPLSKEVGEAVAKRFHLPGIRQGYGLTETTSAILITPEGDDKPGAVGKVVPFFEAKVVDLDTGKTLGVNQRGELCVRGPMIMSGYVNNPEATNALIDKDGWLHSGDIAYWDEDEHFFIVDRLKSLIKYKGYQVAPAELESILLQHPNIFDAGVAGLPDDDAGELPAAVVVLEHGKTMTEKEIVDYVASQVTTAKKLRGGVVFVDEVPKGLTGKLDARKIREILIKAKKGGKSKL
SMILES,"integrated quantity of light emitted (RLU/for 200 sec), dependence on concentration (0 to 33.3 mM)",change of the maximum quantity of light emitted (RLU/sec) as compared with the system containing no reagent (0 mM) (0.33 mM and 3.3 mM),maximum quantity of light emitted relative to the value for the system without DTT (33.3 mM),RLU/200 (integrated quantity of light emitted for 200 seconds) (final concentration 0.33 mM),max RLU (maximum quantity of light emitted) (final concentration 0.33 mM),RLU/200 (integrated quantity of light emitted for 200 seconds) (final concentration 3.3 mM),max RLU (maximum quantity of light emitted) (final concentration 3.3 mM),RLU/200 (integrated quantity of light emitted for 200 seconds) (final concentration 33.3 mM),max RLU (maximum quantity of light emitted) (final concentration 33.3 mM),increase in the integrated quantity of light emitted (RLU/200 sec) as compared with the system containing no reagent (0 mM) (0.33 mM and 3.3 mM),maximum and integrated quantity of light emitted relative to the system at a lower concentration (33.3 mM vs 3.3 mM),emission pattern (glow vs flash luminescence),change of the maximum quantity of light emitted (RLU/sec) as compared with the system containing no reagent (0 mM) (0.33 mM),increase in the integrated quantity of light emitted (RLU/200 sec) as compared with the system containing no reagent (0 mM) (0.33 mM),maximum and integrated quantity of light emitted relative to the system at a lower concentration (33.3 mM vs 0.33 mM),"maximum and integrated quantity of light emitted relative to the systems at lower concentrations (33.3 mM vs 0.33 mM, 3.3 mM)"
"O[C@H](CS)[C@H](O)CS (racemic) [DTT, dithiothreitol, reference compound]",increased with increasing DTT concentration,little difference,1.8 times,"511,723,424 RLU/200 sec","3,359,620 RLU/sec","579,940,160 RLU/200 sec","3,221,070 RLU/sec","667,250,048 RLU/200 sec","3,434,180 RLU/sec",,,,,,,
Sc1nc2ccccc2s1 [2-mercaptobenzothiazole],,increased only slightly,,"492,116,224 RLU/200 sec","3,267,710 RLU/sec","622,578,816 RLU/200 sec","3,410,350 RLU/sec","421,084,568 RLU/200 sec","2,603,090 RLU/sec",about 1.7 fold,nearly two-thirds,glow luminescence,,,,
"CCOC(=S)[S-].[K+] [Potassium xanthogenate, potassium xanthogenate]",,,,"616,747,200 RLU/200 sec","3,232,620 RLU/sec","92,549,720 RLU/200 sec","473,070 RLU/sec","4,519,292 RLU/200 sec","24,210 RLU/sec",,,glow luminescence,increased only slightly,about 1.7 fold,about one-thirteenth,
"CCN(CC)C(=S)[S-].[Na+] [Sodium diethyldithiocarbamate, sodium diethyldithiocarbamate]",,increased only slightly,,"592,116,224 RLU/200 sec","3,267,710 RLU/sec","611,260,800 RLU/200 sec","3,141,880 RLU/sec","246,535,408 RLU/200 sec","1,261,630 RLU/sec",about 1.7 fold,,glow luminescence,,,,about two-fifths
